Results taken from patent publication US6727257B1, “5-(heterocyclic alkyl)-6-aryl-dihydropyrimidines” (Synaptic Pharmaceutical Corporation, priority 1994, dated 2004).
Counter-ions that a name gives are not always drawn.

SMILES	melting point [°C]
COCN1C(C)=NC(C)=C(C(=O)NCCCN2CCC(C(=O)OC)(c3ccccc3)CC2)C1c1ccc(F)c(F)c1 (stereo not drawn)	53 to 57
CNC(=O)C1=C(C)N=C(C)N(CCCCCN2CCC(C(=O)OC)(c3ccccc3)CC2)C1c1ccc(F)cc1F (stereo not drawn) (as salt: HCl)	152 to 155
COC(=O)C1=C(C)N=C(C)N(CCCCCN2CCC(C(=O)OC)(c3ccccc3)CC2)C1c1ccc(F)c(F)c1 (stereo not drawn) (as salt: HCl) [Example 23, 6-(3,4-Difluorophenyl)-1,6-dihydro-5-methoxycarbonyl-1-(5-(4-methoxycarbonyl-4-phenylpiperidin-1-yl)-pentyl)-2,4-dimethylpyrimidine]	170 to 176
COC(=O)C1=C(C)N=C(C)N(CCCCCNCCCc2ccccc2)C1c1ccc(F)c(F)c1 (stereo not drawn) (as salt: HCl) [Example 61, 6-(3,4-Difluorophenyl)-1,6-dihydro-5-methoxycarbonyl-2,4-dimethyl-1-(5-(3-phenylpropylamino)pentyl)pyrimidine]	95 to 97
COC(=O)C1=C(C)NC(=O)N(C(=O)NCCCN2CCC(c3ccccn3)CC2)C1c1ccc(F)c(F)c1 (stereo not drawn) (as salt: hydrochloride) [Example 21, 6-(3,4-Difluorophenyl)-5-methoxycarbonyl-4-methyl-2-oxo-1-{N-[4-(2-pyridyl)-piperidine-1-yl]propyl)carboxamido-1,2,3,6-tetrahydropyrimidine Dihydrochloride]	170 to 174
COC(=O)C1=C(C)N=C(C)N(CCCC(O)CN2CCC(c3ccccn3)CC2)C1c1ccc(F)c(F)c1 (single isomer, unassigned; (+)) (as salt: HCl) [Example 62, (+)-6-(3,4-Difluorophenyl)-1,6-dihydro-1-(4-hydroxy-5-(4-(2-pyridyl)piperidin-1-yl)pentyl)-5-methoxycarbonyl-2,4-dimethylpyrimidine]	163 to 165
